Assay results reported in patent US10407414B2, “Mannose derivatives for treating bacterial infections” (priority 2015, dated 2019).

System: bacterial strain LF82 binding to the glycoprotein BSA-(Mannose)3 (FimH antagonists)
Experiment: Bacterial Binding Assay (BBA)
Assay type: cell-based, Escherichia coli
Details: read-out: Bacterial Binding Assay IC50 ± SEM
Description: The purpose of the Bacterial Binding Assay (BBA) is to determine the inhibition activity of selective FimH antagonists on the bacterial strain LF82 binding to the glycoprotein BSA-(Mannose)3.
Below is a list of the Materials used to run the BBA are described below. • 1. LB broth: Supplier: Gibco, #10855 • 2. D-PBS: Supplier: Wisent, #311-425-CL • 3. LB agar plates • 4. 96-well black plate (high binding): Supplier: Costar, #3925 • 5. TopSeal™-A adhesive sealing films; Supplier PerkinElmer, #6005185 • 6. Carbonate-bicarbonate buffer pH 9.6 tablets, Supplier: Medicago, #09-8922-24 • 7. Water, Supplier: Gibco, #15230-162 • 8. Bovine serum albumin (BSA): Supplier: Sigma, #A-7888 • 9. (Man)3-BSA (α1-3, α1-6 Mannotriose-BSA, 1 mg), V-Labs, #NGP1336, lot# HGDX37-169-1 • 10. Tween 20: Supplier: Sigma, #P9416 • 11. Bright-Glo Luciferase Assay System: Supplier: Promega, #E2610 • 12. LF82/Luciferase strain: Invasive ability of an Escherichia coli strain isolated from the ileal mucosa of a patient with Crohn's disease. Boudeau J, Glasser A L, Masseret E, Joly B, Darfeuille-Michaud A, Infect Immun. 1999, 67(9), 4499-509
Solutions and buffers used to run the BBA are described below. • 1. 0.04M carbonate-bicarbonate buffer (coating buffer) • 2. 40 μg/mL BSA-(Man)3: Dissolve 1 mg of (Man)3-BSA in 25 mL of water. • 3. 4000 μg/mL BSA • 4. 40 μg/mL BSA • 5. 1 μg/mL BSA-(Man)3: 150 μL of 40 μg/mL BSA-(Man)3+5.85 mL of 40 μg/mL BSA • 6. 0.5 μg/mL BSA-(Man)3 in 0.02M carbonate-bicarbonate buffer. • 7. 20 μg/mL BSA in 0.02M carbonate-bicarbonate buffer • 8. Blocking buffer (2% BSA/DPBS): 1 g of BSA in 50 mL D-PBS • 9. 2× binding buffer (0.2% BSA/D-PBS): 5 mL of blocking buffer+45 mL D-PBS. • 10. Washing buffer (D-PBS/0.01% Tween 20): 10 μL of Tween 20 in 100 mL D-PBS. • 11. 1× Bright-Glo Luciferase substrate: Dilute 1:1 the Bright-Glo Luciferase Assay System with D-PBS
The experimental protocol used in this example to run the BBA is described below.
Overnight culture of LF82/Luciferase strain: Into two Falcon 50 mL tubes, add 20 mL of LB+20 μL of 50 mg/mL Kanamycin and inoculate with a loop from glycerol stock of the LF82/Luciferase strain. Incubate overnight at 37° C. with no shaking.
Glycoprotein coating of 96-well plates: Add 100 μL/well of 0.5-2 μg/mL BSA-(Man)3. 20 μg/mL BSA is used as the control background. Seal plate using an adhesive sealing film and incubate overnight at room temperature. Wash the 96-well plate three times with 150 μL/well of D-PBS, add 170 μL/well of blocking solution and incubate 45 min (minimum) at room temperature.
Preparation of bacterial suspension: Mix the two cultures tubes (40 mL) and perform a 1:10 dilution in LB (900 μl LB+100 μl culture. Measure optical density (OD) of the bacterial cultures. OD1 ˜5×10^8 cells/mL. Centrifuge LF82 culture for 20 min at 3500 rpm at room temperature. Re-suspend bacterial pellet in D-PBS and centrifuge again for 20 min at 3500 rpm. Re-suspend bacterial pellet in D-PBS to obtain a bacterial concentration of 2×10^9 bacteria/mL. Dilute 1/10 in D-PBS to obtain a final bacterial concentration of 2×10^8 bacteria/mL (=107 bacteria/50 μL). Perform 1/10 serial dilutions in LB of each bacterial suspension, plate 10 μL of dilutions on LB agar plates (final dilutions of 10^−7) and incubate overnight at 37° C. and count CFUs to determine the actual bacteria density in the assay.
Bacterial binding assay: Add 147 μL 2× binding buffer to compound plate (containing 3 μL of compound). After blocking step is performed (at least 45 min), wash plates three times with 200 μL/well of D-PBS. With a 100 μL multichannel manual pipettor, add 50 μL/well of compound diluted in 2× binding buffer. With a 100 μL multichannel manual pipettor, add 50 μL/well of bacterial suspension. Agitate at slow speed for 1 min and incubate 40-75 min at room temperature. Wash 5 times with 150 μL/well of washing buffer and then once with D-PBS. Add 100 μL/well of 1× Bright-Glo Luciferase substrate. […]

Question: Which IC50 does the source give for OC[C@H]1O[C@H](C#Cc2cccc3cn[nH]c23)[C@@H](O)[C@@H](O)[C@@H]1O [Compound 1, (2R,3S,4R,5S,6R)-2-(hydroxymethyl)-6-[2-(1H-indazol-7-yl)ethynyl]tetrahydropyran-3,4,5-triol] here?
Answer: 98 ± 22 nM

Question: For Cc1cc(C#C[C@H]2O[C@H](CO)[C@@H](O)[C@H](O)[C@@H]2O)c2[nH]ncc2c1 [Compound 2, (2R,3S,4R,5S,6R)-2-(hydroxymethyl)-6-[2-(5-methyl-1H-indazol-7-yl)ethynyl]tetrahydropyran-3,4,5-triol], which IC50 is on record?
Answer: 14 ± 2 nM

Question: With OC[C@H]1O[C@H](C#Cc2cccc3[nH]ncc23)[C@@H](O)[C@@H](O)[C@@H]1O [Compound 3, (2R,3S,4R,5S,6R)-2-(hydroxymethyl)-6-[2-(1H-indazol-4-yl)ethynyl]tetrahydropyran-3,4,5-triol] as the compound, how does the IC50 read?
Answer: 110 ± 10 nM

Question: Cc1cc(C#C[C@H]2O[C@H](CO)[C@@H](O)[C@H](O)[C@@H]2O)c2[nH]ccc2c1 [Compound 4, (2R,3S,4R,5S,6R)-2-(hydroxymethyl)-6-[2-(5-methyl-1H-indol-7-yl)ethynyl]tetrahydropyran-3,4,5-triol] was tested. Which IC50 did it give?
Answer: 46 ± 12 nM

Question: How did the IC50 turn out when N#Cc1cc(C#C[C@H]2O[C@H](CO)[C@@H](O)[C@H](O)[C@@H]2O)c2nc[nH]c2c1 [Compound 5, 7-[2-[(2R,3S,4R,5S,6R)-3,4,5-trihydroxy-6-(hydroxymethyl)tetrahydropyran-2-yl]ethynyl]-3H-benzimidazole-5-carbonitrile] was run?
Answer: 20 ± 2 nM

Question: Which IC50 does the source give for OC[C@H]1O[C@H](C#Cc2cc(Cl)cc3cn[nH]c23)[C@@H](O)[C@@H](O)[C@@H]1O [Compound 6, (2R,3S,4R,5S,6R)-2-[2-(5-chloro-1H-indazol-7-yl)ethynyl]-6-(hydroxymethyl)tetrahydropyran-3,4,5-triol] here?
Answer: 24 ± 5 nM

Question: For Cc1cc(C#C[C@H]2O[C@H](CO)[C@@H](O)[C@H](O)[C@@H]2O)c2cn[nH]c2c1 [Compound 7, (2R,3S,4R,5S,6R)-2-(hydroxymethyl)-6-[2-(6-methyl-1H-indazol-4-yl)ethynyl]tetrahydropyran-3,4,5-triol], which IC50 is on record?
Answer: 76 ± 26 nM

Question: For OC[C@H]1O[C@H](C#Cc2cccc3nn[nH]c23)[C@@H](O)[C@@H](O)[C@@H]1O [Compound 8, (2R,3S,4R,5S,6R)-2-[2-(3H-benzotriazol-4-yl)ethynyl]-6-(hydroxymethyl)tetrahydropyran-3,4,5-triol], which IC50 is on record?
Answer: 180 ± 40 nM

Question: With OC[C@H]1O[C@H](C#Cc2cccc3c2NCC3)[C@@H](O)[C@@H](O)[C@@H]1O [Compound 9, (2R,3S,4R,5S,6R)-2-(hydroxymethyl)-6-(2-indolin-7-ylethynyl)tetrahydropyran-3,4,5-triol] as the compound, how does the IC50 read?
Answer: 725 ± 155 nM

Question: How did the IC50 turn out when OC[C@H]1O[C@H](C#Cc2cccc3ncoc23)[C@@H](O)[C@@H](O)[C@@H]1O [Compound 10, (2R,3S,4R,5S,6R)-2-[2-(1,3-benzoxazol-7-yl)ethynyl]-6-(hydroxymethyl)tetrahydropyran-3,4,5-triol] was run?
Answer: 217 ± 133 nM

Question: Which IC50 does the source give for O=C1Cc2cccc(C#C[C@H]3O[C@H](CO)[C@@H](O)[C@H](O)[C@@H]3O)c2N1 [Compound 11, 7-[2-[(2R,3S,4R,5S,6R)-3,4,5-trihydroxy-6-(hydroxymethyl)tetrahydropyran-2-yl]ethynyl]indolin-2-one] here?
Answer: 190 ± 75 nM

Question: Which IC50 does the source give for O=c1[nH]c2cc(Cl)cc(C#C[C@H]3O[C@H](CO)[C@@H](O)[C@H](O)[C@@H]3O)c2[nH]1 [Compound 12, 6-chloro-4-[2-[(2R,3S,4R,5S,6R)-3,4,5-trihydroxy-6-(hydroxymethyl)tetrahydropyran-2-yl]ethynyl]-1,3-dihydrobenzimidazol-2-one] here?
Answer: 16 ± 6 nM

Question: For Cn1ncc2cccc(C#C[C@H]3O[C@H](CO)[C@@H](O)[C@H](O)[C@@H]3O)c21 [Compound 13, (2R,3S,4R,5S,6R)-2-(hydroxymethyl)-6-[2-(1-methylindazol-7-yl)ethynyl]tetrahydropyran-3,4,5-triol], which IC50 is on record?
Answer: 480 ± 150 nM

Question: With OC[C@H]1O[C@H](C#Cc2nccc3cn[nH]c23)[C@@H](O)[C@@H](O)[C@@H]1O [Compound 14, (2R,3S,4R,5S,6R)-2-(hydroxymethyl)-6-[2-(1H-pyrazolo[3,4-c]pyridin-7-yl)ethynyl]tetrahydropyran-3,4,5-triol] as the compound, how does the IC50 read?
Answer: 350 ± 80 nM

Question: CCCCc1cc(C#C[C@H]2O[C@H](CO)[C@@H](O)[C@H](O)[C@@H]2O)c2[nH]c(=O)[nH]c2c1 [Compound 15, 6-butyl-4-[2-[(2R,3S,4R,5S,6R)-3,4,5-trihydroxy-6-(hydroxymethyl)tetrahydropyran-2-yl]ethynyl]-1,3-dihydrobenzimidazol-2-one] was tested. Which IC50 did it give?
Answer: 0.7 ± 0.2 nM

Question: Which IC50 does the source give for OC[C@H]1O[C@H](C#Cc2cc(Br)cc3cn[nH]c23)[C@@H](O)[C@@H](O)[C@@H]1O [Compound 16, (2R,3S,4R,5S,6R)-2-[2-(5-bromo-1H-indazol-7-yl)ethynyl]-6-(hydroxymethyl)tetrahydropyran-3,4,5-triol] here?
Answer: 8 ± 1 nM

Question: Which IC50 does the source give for COc1ccc(Cn2cc3cc(Br)cc(C#C[C@H]4O[C@H](CO)[C@@H](O)[C@H](O)[C@@H]4O)c3n2)cc1 [Compound 17, (2R,3S,4R,5S,6R)-2-[2-[5-bromo-2-[(4-methoxyphenyl)methyl]indazol-7-yl]ethynyl]-6-(hydroxymethyl)tetrahydropyran-3,4,5-triol] here?
Answer: 46 ± 14 nM

Question: For COc1ccc(Cn2ncc3cc(Br)cc(C#C[C@H]4O[C@H](CO)[C@@H](O)[C@H](O)[C@@H]4O)c32)cc1 [Compound 18, (2R,3S,4R,5S,6R)-2-[2-[5-bromo-1-[(4-methoxyphenyl)methyl]indazol-7-yl]ethynyl]-6-(hydroxymethyl)tetrahydropyran-3,4,5-triol], which IC50 is on record?
Answer: 67 ± 26 nM

Question: For CCCCc1cc(C#C[C@H]2O[C@H](CO)[C@@H](O)[C@H](O)[C@@H]2O)c2[nH]nnc2c1 [Compound 19, (2R,3S,4R,5S,6R)-2-[2-(6-butyl-3H-benzotriazol-4-yl)ethynyl]-6-(hydroxymethyl)tetrahydropyran-3,4,5-triol], which IC50 is on record?
Answer: 2 ± 0.6 nM

Question: CCCCc1cc(C#C[C@H]2O[C@H](CO)[C@@H](O)[C@H](O)[C@@H]2O)c2[nH]cnc2c1 [Compound 20, (2R,3S,4R,5S,6R)-2-[2-(6-butyl-3H-benzimidazol-4-yl)ethynyl]-6-(hydroxymethyl)tetrahydropyran-3,4,5-triol] was tested. Which IC50 did it give?
Answer: 2 ± 0.2 nM

Question: CCCCn1ncc2c(C#C[C@H]3O[C@H](CO)[C@@H](O)[C@H](O)[C@@H]3O)cccc21 [Compound 21, (2R,3S,4R,5S,6R)-2-[2-(1-butylindazol-4-yl)ethynyl]-6-(hydroxymethyl)tetrahydropyran-3,4,5-triol] was tested. Which IC50 did it give?
Answer: 22 ± 0.5 nM

Question: Which IC50 does the source give for CCCCc1cc(C#C[C@H]2O[C@H](CO)[C@@H](O)[C@H](O)[C@@H]2O)c2c(cnn2C)c1 [Compound 22, (2R,3S,4R,5S,6R)-2-[2-(5-butyl-1-methyl-indazol-7-yl)ethynyl]-6-(hydroxymethyl)tetrahydropyran-3,4,5-triol] here?
Answer: 53 ± 4 nM

Question: Which IC50 does the source give for CCCCc1cc(C#C[C@H]2O[C@H](CO)[C@@H](O)[C@H](O)[C@@H]2O)c2nn(C)cc2c1 [Compound 23, (2R,3S,4R,5S,6R)-2-[2-(5-butyl-2-methyl-indazol-7-yl)ethynyl]-6-(hydroxymethyl)tetrahydropyran-3,4,5-triol] here?
Answer: 9 nM
